Reference: the supplement of paper PMC10307832

What was measured:
Test in all cases: relative viability (nuclei count vs DMSO), 5 days (fraction); higher = more cells survive
[1] = compound: C[C@@H](N)c1ccc(C(=O)Nc2ccnc3[nH]ccc23)cc1 + Nc1nc2[nH]cc(CCc3ccc(C(=O)N[C@@H](CCC(=O)O)C(=O)O)cc3)c2c(=O)[nH]1 [Pemetrexed] (partner 0.2 µM)
Method in brief: (§1)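 A single step with final 0.05% Triton X-100, 1% formaldehyde and 1 ug/ml Hoechst fixed the cells and stained nuclei 5 days after treatment. Lung cancer cell lines in 1536-well plates had been treated by pin tool the day after seeding with one drug alone or a fixed anchor-drug dose plus five library-drug doses (not always all listed) in √10 steps, and nuclei were counted on 4× images. Relative viability is the ratio of nuclei in treated wells to nuclei in vehicle wells, taken as the median of duplicate plates.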

[2] = compound: O[C@H]1CC[C@H](Nc2ncc3nc(Nc4c(F)cc(F)cc4F)n([C@H]4CCOC4)c3n2)CC1 [Tanzisertib] + COc1cccc2cc(-c3nc([C@H]4CC[C@H](C(=O)O)CC4)n4ncnc(N)c34)[nH]c12 [OSI-027] (partner 0.5 µM)
Method in brief: as §1

[3] = compound: C1CNCCC1C2=CC(=NN2)C3=CC=NC=C3 + CC(C)C[C@H](NC(=O)[C@H](Cc1ccccc1)NC(=O)c1cnccn1)B(O)O [Bortezomib] (partner 0.002 µM)
Method in brief: as §1

[4] = compound: C1CNCCC1C2=CC(=NN2)C3=CC=NC=C3 + C[C@]1(O)C[C@@H](c2nc(-c3ccc4ccc(-c5ccccc5)nc4c3)c3c(N)nccn32)C1 [Linsitinib] (partner 1 µM)
Method in brief: as §1

Cell Line	relative viability ([1]; first compound 0.04 µM)	relative viability ([1]; first compound 0.1265 µM)	relative viability ([1]; first compound 0.4 µM)	relative viability ([1]; first compound 1.265 µM)	relative viability ([1]; first compound 4 µM)	relative viability ([2]; first compound 0.08 µM)	relative viability ([2]; first compound 0.253 µM)	relative viability ([2]; first compound 0.8 µM)	relative viability ([2]; first compound 2.53 µM)	relative viability ([2]; first compound 8 µM)	relative viability ([3]; first compound 0.08 µM)	relative viability ([3]; first compound 0.8 µM)	relative viability ([3]; first compound 2.53 µM)	relative viability ([3]; first compound 8 µM)	relative viability ([4]; first compound 0.08 µM)	relative viability ([4]; first compound 0.8 µM)	relative viability ([4]; first compound 2.53 µM)	relative viability ([4]; first compound 8 µM)
201T	0.316	0.297	0.382	0.29	0.314	0.632	0.854	0.673	0.713	0.501	1.06	1.07	1.08	1.1	1.02	1.01	0.996	1.04
A549															0.509	0.556	0.696	0.729
A-427	0.827	0.985	0.815	0.671	0.726	0.547	0.525	0.538	0.414	0.283	1.03	0.955	1.06	0.935	1.09	1.09	1.15	1.07
ABC-1						0.471	0.469	0.469	0.511	0.461	0.329	0.253	0.332	0.351	0.702	0.644	0.685	1.01
BEN	0.556	0.711	0.701	0.877	0.634	0.299	0.281	0.293	0.314	0.288	0.724	0.592	0.852	0.96	0.689	0.984	0.921	0.913
CAL-12T	1.23	1.39	1.43	1.49	1.27	0.612	0.633	0.62	0.748	0.635	1.08	1.01	1.05	1.07	0.792	0.754	0.9	0.872
COR-L23	0.204	0.195	0.188	0.201	0.178	0.892	0.757	0.704	0.842	0.732	0.872	0.993	0.95	0.981	0.931	1.05	0.984	0.918
COR-L 105	1	1.12	0.94	0.98	0.619	0.663	0.686	0.682	0.631	0.444	0.737	0.746	1.01	0.851	0.986	0.896	0.965	0.926
Calu-6											0.873	1.13	1.17	1.09	0.877	0.941	0.994	0.884
ChaGo-K-1	0.259	0.277	0.257	0.234	0.241	0.673	0.615	0.583	0.51	0.472	0.991	1.31	1.02	0.984				
EBC-1											0.694	0.575	0.591	0.55	0.899	0.938	1.09	0.949
EKVX	0.365	0.383	0.566	0.354	0.379	0.872	0.749	0.613	0.612	0.598	1.21	0.585	1.07	1.04	1.06	0.865	1.13	0.984
EMC-BAC-2	0.401	0.422	0.452	0.471	0.402	0.404	0.383	0.383	0.37	0.363	0.978	1.19	1.2	1.03	0.78	0.806	0.818	0.771
EPLC-272H	0.251	0.339	0.312	0.238	0.225	0.285	0.264	0.25	0.314	0.251	0.971	0.913	0.965	0.993	1.15	1.15	1.22	1.17
H3255	0.556	0.554	0.552	0.555	0.501	0.513	0.644	0.659	0.479	0.48	0.826	0.835	1.41	0.741	0.858	1.13	0.957	0.993
HARA	0.191	0.209	0.257	0.249	0.236	0.74	0.496	0.537	0.45	0.0888	1	1.28	1.1	1.15	0.938	1.07	0.983	0.939
HCC-15	0.242	0.242	0.209	0.212	0.233	0.834	0.652	0.735	0.606	0.327	0.991	1.23	0.994	0.938	0.809	0.903	0.937	0.905
HCC-44	0.594	0.603	0.636	0.707	0.627	0.665	0.557	0.546	0.561	0.353	0.911	0.93	1	0.886	0.66	0.595	0.698	0.684
HCC-78	0.942	0.928	0.906	0.98	0.963	0.344	0.376	0.396	0.382	0.316	0.439	0.405	0.467	0.619	0.446		0.513	0.61

Cell Line	relative viability ([1]; first compound 0.04 µM)	relative viability ([1]; first compound 0.1265 µM)	relative viability ([1]; first compound 0.4 µM)	relative viability ([1]; first compound 1.265 µM)	relative viability ([1]; first compound 4 µM)	relative viability ([2]; first compound 0.08 µM)	relative viability ([2]; first compound 0.253 µM)	relative viability ([2]; first compound 0.8 µM)	relative viability ([2]; first compound 2.53 µM)	relative viability ([2]; first compound 8 µM)	relative viability ([3]; first compound 0.08 µM)	relative viability ([3]; first compound 0.8 µM)	relative viability ([3]; first compound 2.53 µM)	relative viability ([3]; first compound 8 µM)	relative viability ([4]; first compound 0.08 µM)	relative viability ([4]; first compound 0.8 µM)	relative viability ([4]; first compound 2.53 µM)	relative viability ([4]; first compound 8 µM)
HCC-366	0.154	0.148	0.163	0.241	0.184	0.968	0.888	0.942	0.977	0.051	0.856	1.11	1.08	1.04	0.55	0.756	0.712	0.622
HCC-827		0.272	0.268	0.292	0.264	0.857	0.763	0.775	0.678	0.44	1	1.02	1.06	1.01	0.992	0.963	1.05	0.956
IA-LM											0.911	0.934	1.08	0.864	0.717	0.893	0.958	0.621
LK-2	0.345	0.264	0.22	0.282	0.362	0.26	0.209	0.193	0.16	0.186						0.751	0.427	0.519
NCI-H358	0.183	0.189	0.18	0.165	0.16	0.817	0.637	0.661	0.655	0.501					0.595	0.792	0.688	0.765
NCI-H522	0.842	1.09	0.956	1.05	1.01	0.802	0.831	0.748	0.696	0.626								
NCI-H727						0.618	0.564	0.643	0.483	0.647	0.842	0.829	1.14	0.911	0.362	0.338	0.294	0.21
NCI-H1299											1.02	1.01	1.02	0.999	0.987	1.14	1.05	0.924
NCI-H1395	0.888	0.95	0.927		0.741	0.697	0.714	0.622	0.692	0.518					1.02	0.886	1.24	0.977
NCI-H1623						0.495	0.448	0.453	0.437	0.432								
NCI-H1648	1.12	0.933	1.03	1.12	1.28	0.275	0.245	0.239	0.319	0.223								
NCI-H1650	0.443	0.394	0.399	0.349	0.355	0.644	0.876	0.735	0.539	0.52	0.212	0.184	0.214	0.204				
NCI-H1703											0.502	0.334	0.351	0.366	0.79	0.858	0.928	0.852
NCI-H1793	1.02	0.978	0.94		1	0.27	0.262	0.285	0.292	0.197					0.67	0.669	0.922	0.876
NCI-H1944	0.594	0.605	0.73	0.596	0.611	0.4	0.393	0.426	0.389	0.338					1.14	1.08	1.25	1.1
NCI-H2170	0.284	0.249	0.271	0.277	0.263	0.765	0.771	0.729	0.735	0.588								
NCI-H2342	0.781	0.803	0.792	0.847	0.794	0.663	0.718	0.571	0.537	0.583								
SK-MES-1	0.901	0.964	0.906	0.887	0.877	0.677	0.588	0.597	0.591	0.501					1.07	1.1	1.15	0.953
SW 900	0.465	0.478	0.475	0.5	0.474	0.644	0.588	0.511	0.866	0.556								
